Experimental data as given in patent US20190389843A1, “PYRROLE mTORC INHIBITORS AND USES THEREOF” (Navitor Pharmaceuticals, Inc., priority 2016, published 2019).
pIC50: −log10 of the molar value.

Columns and labels:
Type in all cases: cell-based
[1] = tested on: pS6K1 in MCF7 (measure of mTORC1 activity); assay: AlphaLISA Ultra pS6K1 assay; conditions: Homo sapiens, MCF7, 2 h, MCF-7 cells, 2 hours compound incubation
Procedure, shortened: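 MCF7 cells, refreshed medium 2 h, treated with compound 2 h at 0.5% DMSO final, then lysed. Phospho-S6K1 in lysates detected by AlphaLISA Ultra (acceptor beads 2 h, donor beads 2 h), read as Alpha signal on a multimode reader.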

[2] = tested on: Glucose uptake in MCF-7 cells; assay: Radioactive glucose uptake in MCF-7 cells; conditions: Homo sapiens, MCF7, 3H-2DG uptake, 20 mins
Method: Example 157: Radioactive Glucose Uptake in MCF-7 Cells
Assay Protocol • 1. Seed approximately 12,000 MCF-7 cells cultured without insulin per well in 96-well plates (BIOCOAT, #356690) and let the cells sit in hood for 30 min. (Cell culture medium: DMEM+10% FBS). • 2. Put the cell culture plates in TC incubator (5% CO2, 37° C.) and incubate overnight. • 3. Take out the cell plates and wash with prewarmed KRH buffer (37° C.) three times using BioTek plate washer. (KRH buffer preparation: 136 mM NaCl, 4.7 mM KCl, 1.25 mM MgCl2, 1.2 mM CaCl2, 20 mM HEPES, 0.1 mg/ml sodium pyruvate, 0.1% BSA, pH 7.4). • 4. Compound preparation and treatment: • a) Add 12 ul compound stock in 100% DMSO to the first column of Echo LDV plate • b) Serially dilute the compound solution in 100% DMSO (4 uL+8 uL DMSO) using Bravo for 9 doses • c) Dispense 350 nL compounds using Echo to the working plate • d) i) Without compound preincubation condition, dispense 116 uL KRH buffer containing tritiated 2-deoxy-D-glucose (3H-2DG) and 2-deoxy-D-glucose (2DG) to the working plate and mix. • ii. With compound preincubation condition, dispense 110 uL KRH buffer only to the working plates and mix • e) Keep the compound working plate at 37° C. incubator until use • 5. Discard the KRH buffer (cells were kept in KRH buffer for 10-15 min before 2-DG addition) and transfer 100 uL compound working solution out to the cell culture plate using Bravo. Incubate for 20 mins at 37° C. (2DG final at 0.2 mM, 3H-2DG at 10 uCi/mL). • 6. Add prewarmed 50 uL KRH buffer (37° C.) containing 60 mM cold 2DG to the wells to stop the 2DG uptake using Multidrop combi • 7. Wash the cells with prewarmed PBS three times using BioTek plate washer • 8. Add 50 uL lysis buffer (0.1 M NaOH) into the assay plate to lyse the cells using Bravo and shake at 800 rpm for 30 min. • 9. Mix and transfer 20 uL lysate to a new white plate (Corning, #3610) and add 200 uL MicroScint-20 using Bravo • 10. Shake the plate at 1000 rpm for 30 min and count in a MicroBeta plate reader.

[3] = tested on: pAKT in MCF7 (measure of mTORC2 activity); assay: AlphaLISA Ultra pAKT assay; conditions: Homo sapiens, MCF7, 2 h, MCF-7 cells, 2 hours compound incubation
Procedure, shortened: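 MCF7 cells, 16,000-20,000 per well, treated with compound for 2 h at 0.5% final DMSO, then lysed. Phospho-AKT, as a readout of mTORC2 activity, measured by AlphaLISA Ultra with acceptor beads and then donor beads, 2 h each.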

Row | SMILES | pIC50 [1] | pIC50 [2] | pIC50 [3]
1 | Cc1c(CN2CCN(c3ccccc3C#N)CC2)cc(C(=O)N2CCN(c3ccc(F)cn3)CC2)n1C [Example I-63] | 6.00 to 8.00 | 6.00 to 8.00 | < 6.52
2 | Cc1c(CN2CCN(c3ccccc3Cl)CC2)cc(C(=O)N2CCN(c3ccc(F)cn3)CC2)n1C [Example I-72] | 6.00 to 8.00 | 6.00 to 8.00 | < 6.52
3 | Cc1c(CN2CCN(c3ccccc3C#N)CC2)cc(C(=O)N2CCN(c3cccc(C#N)c3)C[C@@H]2C)n1C [Example I-66] | 6.00 to 8.00 |  | < 5.52
4 | Cc1c(CN2CCN(c3ncccc3Cl)CC2)cc(C(=O)N2CCN(c3cccc(Cl)c3)C[C@@H]2C)n1C [Example I-90, (S)-(4-(3-chlorophenyl)-2-methylpiperazin-1-yl)(4-((4-(3-chloropyridin-2-yl)piperazin-1-yl)methyl)-1,5-dimethyl-1H-pyrrol-2-yl)methanone] | 5.52 to 6.00 |  | < 5.52
5 | Cc1c(CN2CCN(c3ccccc3Cl)CC2)cc(C(=O)N2CCn3c(cc4ccccc43)C2)n1C [Example I-76, (4-((4-(2-chlorophenyl)piperazin-1-yl)methyl)-1,5-dimethyl-1H-pyrrol-2-yl)(3,4-dihydropyrazino[1,2-a]indol-2(1H)-yl)methanone] | 5.52 to 6.00 | < 5.52 | < 5.30
